Measurements taken from publication PMC10518658, “Dual activity of indolin-2-ones containing an arylidene motif: DNA and BSA interaction” (RSC Advances, 2023).

Target: T1, bovine serum albumin (BSA) (Bos taurus, UniProt P02769)
T1 construct: gene ALB
Experiment: fluorescence emission titration (BSA quenching, excitation […] nm), double-log plot; value is Ka, n = […]
Format: binding
Settings: read-out: fluorescence emission titration (BSA quenching, excitation 287 nm), double-log p (converted)

T1 sequence (P02769 25-607): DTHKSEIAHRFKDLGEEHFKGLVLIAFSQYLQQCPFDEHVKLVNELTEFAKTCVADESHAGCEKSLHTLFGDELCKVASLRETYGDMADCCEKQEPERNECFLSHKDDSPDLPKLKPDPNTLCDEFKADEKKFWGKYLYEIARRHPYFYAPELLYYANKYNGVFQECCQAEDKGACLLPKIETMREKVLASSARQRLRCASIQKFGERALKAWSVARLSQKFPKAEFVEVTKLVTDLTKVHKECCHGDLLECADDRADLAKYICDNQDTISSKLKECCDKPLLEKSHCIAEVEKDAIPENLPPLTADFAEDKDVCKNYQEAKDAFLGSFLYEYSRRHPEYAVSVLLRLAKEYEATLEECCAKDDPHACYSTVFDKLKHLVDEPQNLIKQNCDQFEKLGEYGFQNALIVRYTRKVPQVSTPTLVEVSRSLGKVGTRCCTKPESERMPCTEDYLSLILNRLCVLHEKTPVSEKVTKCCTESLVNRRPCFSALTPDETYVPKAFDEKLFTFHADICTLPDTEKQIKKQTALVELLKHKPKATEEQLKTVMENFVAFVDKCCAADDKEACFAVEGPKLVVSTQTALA

Kd: 164 nM
Compound: C=CCN1C(=O)C(=CC(=O)c2cccc(N)c2)c2ccccc21 [4d, 1-Allyl-3-(2-(3-aminophenyl)-2-oxoethylidene)indolin-2-one]
